Results from PubChem BioAssay (NCI).
“And” between values parts separate entries of the source, which are not always exact repeats. Equal values may be shown once.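 In this assay, cells in 96-well plates receive the compound at five concentrations for 48 hours. Endpoints are linearly interpolated between the surrounding concentrations. Abbreviation: GI50, concentration required for 50% inhibition of growth. TGI denotes the concentration required for complete inhibition of growth.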

Tests used:
Assay in all cases: NCI anticancer screen, dose series, 48 h
[1] = tested on: SF-539 CNS
[2] = tested on: IGROV1 ovarian
[3] = tested on: SF-295 CNS
[4] = tested on: HS 578T breast
[5] = tested on: NCI-H522 lung
[6] = tested on: UO-31 renal
[7] = tested on: UACC-257 melanoma
[8] = tested on: UACC-62 melanoma
[9] = tested on: HCT-116 colon
[10] = tested on: RPMI-8226 leukemia

| Compound | TGI [1] | TGI [2] | TGI [3] | TGI [4] [µM] | TGI [5] | TGI [6] | TGI [7] | TGI [8] | TGI [9] | TGI [10] | GI50 [1] | GI50 [2] | GI50 [3] | GI50 [4] [µM] | GI50 [5] | GI50 [6] | GI50 [7] | GI50 [8] | GI50 [9] | GI50 [10] |
| --- | --- | --- | --- | --- | --- | --- | --- | --- | --- | --- | --- | --- | --- | --- | --- | --- | --- | --- | --- | --- |
| CN(C)CCOc1ccc2c(c1)C/C(=C/c1ncc([N+](=O)[O-])n1C)C2=O | 21.2 µM | 1.49 µM | 20.3 µM | > 49.6 | 3.02 µM | 3.61 µM | 14.7 µM | 4.97 µM | > 19.6 µM | 4.46 µM | – | – | – | – | – | – | – | – | – | – |
| Cc1cc(C(C#N)c2ccc(Cl)cc2)c(Cl)cc1NC(=O)c1cc(I)cc(I)c1O (stereo not given) | 23.2 µM and 32.4 µM | 40.9 µM and 36.5 µM | 14.7 µM and 30.1 µM | 34.4 | 10.5 µM and 47.2 µM | 31.4 µM and 35.1 µM | 28.1 µM and 29.6 µM | 11.5 µM and 23.8 µM | 31.5 µM and 27.6 µM | 13 µM and 43.5 µM | 8.18 µM and 13.2 µM | 10.5 µM and 16.1 µM | 3.22 µM and 10.9 µM | 12 | 3.48 µM and 17.8 µM | 14.7 µM and 14.8 µM | 14.4 µM and 15.1 µM | 2.96 µM and 8.79 µM | 17.7 µM and 14.5 µM | 3.15 µM and 11.1 µM |
| CCCCn1cnc2c(SC)ncnc21 | > 100 µM | > 100 µM | > 100 µM | > 100 | > 100 µM | > 100 µM | > 100 µM | > 100 µM | > 100 µM | > 100 µM | – | – | – | – | – | – | – | – | – | – |
| Cc1nc2sc(C(=O)Nc3ccccc3)c(N)c2cc1C(=O)/C=C/c1ccccc1 | 3.56 µM | 4.73 µM | 7.56 µM | > 100 | 4.24 µM | 2.89 µM | 5.29 µM | 3.45 µM | 2.97 µM | 5.2 µM | 1.88 µM | 1.99 µM | 2.77 µM | 2.79 | 1.77 µM | 1.54 µM | 2.11 µM | 1.64 µM | 1.46 µM | 1.67 µM |
| COc1ccc2c(c1)OC(N(C(C)=O)C(C)=O)=C(C#N)C2c1ccc(F)cc1 (stereo not given) | 6.93 µM | > 100 µM | > 100 µM | > 100 | 18.3 µM | > 100 µM | > 100 µM | > 100 µM | > 100 µM | 27.1 µM | 1.55 µM | 2.82 µM | 2.83 µM | 5.19 | 0.619 µM | 4.19 µM | 23 µM | 0.632 µM | 1.26 µM | 3.18 µM |
| CC(=O)Nc1ccc2c(c1)oc(=O)c1cc(NC(C)=O)ccc12 | > 100 µM | > 100 µM | > 100 µM | > 100 | > 100 µM | > 100 µM | > 100 µM | > 100 µM | > 100 µM | > 100 µM | > 100 µM | 83.4 µM | > 100 µM | 63.4 | 55.7 µM | > 100 µM | > 100 µM | 63.4 µM | 80.8 µM | 52.8 µM |
| Oc1ccc(CCCCCCc2ccc(O)cc2)cc1 | 13.7 µM | 28.4 µM | 15.5 µM | 37.4 | 24.2 µM | 15 µM | 28.4 µM | 15.3 µM | 22.5 µM | > 69 µM | 2.46 µM | 8.83 µM | 3.18 µM | 13.3 | 5.98 µM | 2.36 µM | 13.9 µM | 4.24 µM | 9.68 µM | 12.1 µM |
| C[C@@H]1CN(CC(=O)N2CC(C)(C)c3nc(CO)c(Cc4ccc(F)cc4)cc32)[C@@H](CN2CCOC[C@H]2C)CN1 | 23.6 µM | > 100 µM | > 100 µM | > 100 | 71.6 µM | > 100 µM | 31.1 µM | 65.8 µM | > 100 µM | 48 µM | 6.85 µM | > 100 µM | 61.6 µM | 25 | 21.8 µM | > 100 µM | 15.3 µM | 23.6 µM | 36.9 µM | 21.9 µM |
| CC(=O)O[C@@H]1CC2C(C)(C)CCCC2(C)C2=C1C(=O)C(C(C)C)=CC2=O (stereo not given in full) | 4.05 µM | 4.87 µM | 3.61 µM | > 100 | 3.98 µM | 1.8 µM | 4.29 µM | 2.07 µM | 2.8 µM | 93.4 µM | 1.17 µM | 1.49 µM | 1.77 µM | 1.79 | 1.76 µM | 0.519 µM | 1.55 µM | 0.458 µM | 0.467 µM | 0.948 µM |
| c1cnc2[nH]cc(-c3csc(-c4cn(CCCCN5CCOCC5)c5ccccc45)n3)c2c1 | 3.13 µM | 4.25 µM | 4.04 µM | 4.98 | 3.77 µM | 2.53 µM | 3.53 µM | 3.8 µM | 3.05 µM | 4.29 µM | 1.71 µM | 1.43 µM | 1.92 µM | 1.77 | 1.95 µM | 1.15 µM | 1.84 µM | 1.79 µM | 1.65 µM | 1.83 µM |
| CCCCCCCCCCCCCC(=O)CBr | 30.7 µM | 15.1 µM | 29.3 µM | 52.4 | 3.85 µM | 24 µM | 17.7 µM | 17.9 µM | 17 µM | 4.24 µM | – | – | – | – | – | – | – | – | – | – |
